These results are taken from patent US10293004B2, “Butyrate-producing bacterium and use thereof” (KABUSHIKI KAISHA YAKULT HONSHA, priority 2014, dated 2019).

Experiment [1] has as its system mouse C57BL/6J. Nature of the experiment: Multiple oral dose test of YIT 12355 to mouse given indigestible saccharide. The format is in vivo. As to conditions: for Total cell count: DAPI counting method; for Cell count, A. hadrus: quantitative PCR; for Occupancy: cell count of YIT 12355/total cell count ×100; for Detected count: mice with A. hadrus detected / mice in group. On the procedure: Mice were acclimatized and raised with F2 feed (manufactured by Funabashi Farm Co., Ltd.) for 1 week and then divided into 6 groups such that the average body weight was almost equal among these groups. Then, a control diet (Table 7) was administered thereto for 1 week and replaced with purified feed containing an indigestible material, which was then administered thereto for 2 weeks. A live cell suspension of YIT 12355 was orally administered twice a week a total of 4 times using a probe. At the final day of the test, each mouse was dissected, and the cecal and colonic contents were recovered and examined for an organic acid concentration. Also, the cell count of YIT 12355 in the intestinal tract contents was measured by quantitative PCR, while change in the whole intestinal flora was examined by use of PCR-DGGE (denaturing gradient gel electrophoresis). • Animal used: mouse C57BL/6J (4 weeks old; CLEA Japan, Inc.) • Test period: 3 weeks • Indigestible saccharide used: lactitol and maltitol • Dose of indigestible saccharide: 5% (w/w) • Administered bacterial strain: YIT 12355 • Dose of bacterium: live cell dose: 3.9 to 6.9×10^8 cfu/mouse (administration of a suspension in physiological saline using a probe). Total cell count including dead cells: […] cfu/mouse • Group configuration: 6 groups (5 mice/group) At the 2nd week of administration of the test feed, each mouse was anesthetized with diethyl ether and euthanized by cervical dislocation. After abdominal section, cecal tissues and colonic tissues were excised to recover their contents. The cecal and colonic contents were diluted 10-fold with PBS and subjected to DNA extraction. DNA was extracted by the bead-phenol method from the 10-fold diluted solution of the intestinal tract contents. Specifically, 0.3 g of glass beads (diameter: 0.1 mm), 300 μL of a Tris-SDS solution (a mixed solution of 250 mL of 200 mM Tris-HCl, 80 mM EDTA, pH 9.0, and 50 mL of 10% SDS) and 500 μL of TE saturated phenol were added to 200 μL of the diluted solution of the intestinal tract contents, and the mixture was vigorously shaken for 30 seconds using FASTPREP FP120 cell disruptive equipment (power level: 5.0). After centrifugation at 15,000 rpm for 5 minutes, 400 μL of a phenol/chloroform/isoamyl alcohol (25:24:1) solution was added to 400 μL of the supernatant, and the mixture was shaken for 45 seconds using FASTPREP FP120 cell disruptive equipment (power level: 4.0). After centrifugation at 15,000 rpm for 5 minutes, 25 μL of 3 M sodium acetate (pH 5.4) and 250 μL of isopropanol were added to 250 μL of the supernatant and mixed therewith. After centrifugation at 15,000 rpm for 5 minutes, the supernatant was removed, and 500 μL of 70% ethanol was added thereto, followed by centrifugation again at 15,000 rpm for 5 minutes. The supernatant was removed, and the pellets were dried and dissolved in 1.0 mL of a TE buffer. The obtained DNA solution was diluted 10-fold with purified water to prepare a template DNA solution. For quantitative PCR, 7500 Real-Time PCR System (manufactured by Life Technologies Corp.) was used. The total volume of the reaction solution was set to 20 μL, and SYBR Premix Ex Taq II (Takara Bio Inc.) containing 1.0 μM each of primers, and the template DNA solution were mixed and then subjected to quantitative PCR. The reaction conditions involved heating at 95° C. for 2 minutes, followed by 40 repetitive cycles each involving reactions at 95° C. for 20 seconds, 55° C. for 20 seconds and 72° C. for 50 seconds, and subsequent reaction at 72° C. for 3 minutes. For subsequent Tm value analysis, after reaction at 60° C. for 1 minute, the temperature was elevated at a temperature gradient of 0.2° C./sec to 95° C. during which the fluorescence of SYBR Green I was measured to measure the dissociation temperature (Tm) of the double strand of the amplification product. […]

A short description of experiment [2]: Amount of butyrate produced by culture in PYA medium supplemented with acetate and lactate. As to conditions: PYA medium (33 mM sodium acetate) with 40 mM sodium lactate, 37° C. 24 hours, minus PYA without lactate. On the procedure: Each bacterial solution cultured in a PYGA liquid medium under the same conditions as those described in the preceding paragraph 1) was inoculated at 1% to a PYA medium containing 33 mM sodium acetate and further supplemented with 40 mM sodium lactate, followed by anaerobic culture at 37° C. for 24 hours. After the completion of the culture, the organic acid concentration in the culture solution was analyzed by ion-exclusion HPLC. The analysis conditions were the same as those described in the preceding paragraph 1). The amount of butyrate produced was calculated according to (Expression 2). Amount of butyrate produced=(Amount of butyrate produced by culture for 24 hours in a PYA medium supplemented with 40 mM sodium lactate)−(Amount of butyrate produced by culture for 24 hours in a PYA medium without 40 mM sodium lactate) (Expression 2)

As for “A. hadrus (Eubacterium hadrum) YIT 12355 (NITE BP-01832)”, in experiment [1] (Cecal contents), the Total cell count was found to be 10.9 ± 0.1 log10 cells/g contents, the Occupancy is listed as 0.1 ± 0.1% and the Detected count entry is on record as “(4/5)”. Further, in experiment [1] (Cecal contents, multiple oral dose), the “Cell count, A. hadrus” value worked out at 7.0 ± 1.1 log10 cells/g contents. In addition, in experiment [1] (Colonic contents), the Total cell count was 11.0 ± 0.0 log10 cells/g contents, the Occupancy came out at 0.1 ± 0.1% and the Detected count entry was “(4/5)”. For the same substance, the “Cell count, A. hadrus” value in experiment [1] (Colonic contents, ND: <lower quantification limit 6.0 log10 (cells/g contents)) is 7.2 ± 1.1 log10 cells/g contents. In experiment [1] (summary in words of Table 10), the “cell count of A. hadrus in the intestine” value is recorded as “largely changes neither” and the “occupancy of A. hadrus in the intestine” value is recorded as “largely changes neither”. In addition, in experiment [2], the “Amount of butyrate produced” value was 19.9 mmol/L.
